Measurements taken from ChEMBL document CHEMBL5465560, “Selectivity Literature for EUbOPEN Chemogenomic Library” (2024).
Values belong to the molecule of their own block, whether it stands above or below them.

Legend:
[1] = biological target: Casein kinase I isoform delta (Homo sapiens, UniProt P48730); assay: Selectivity interaction (ActivX KiNativ screen (kinase selectivity in THP-1 cell lysates)) EUB0000639a CSNK1D; assay type: subcellular; settings: lysate
[2] = biological target: T1, Serine/threonine-protein kinase STK11 (Homo sapiens) (UniProt Q15831); assay: Selectivity interaction (ActivX KiNativ screen (kinase selectivity in THP-1 cell lysates)) EUB0000639a STK11; assay type: subcellular; settings: lysate
T1 sequence (whole entry): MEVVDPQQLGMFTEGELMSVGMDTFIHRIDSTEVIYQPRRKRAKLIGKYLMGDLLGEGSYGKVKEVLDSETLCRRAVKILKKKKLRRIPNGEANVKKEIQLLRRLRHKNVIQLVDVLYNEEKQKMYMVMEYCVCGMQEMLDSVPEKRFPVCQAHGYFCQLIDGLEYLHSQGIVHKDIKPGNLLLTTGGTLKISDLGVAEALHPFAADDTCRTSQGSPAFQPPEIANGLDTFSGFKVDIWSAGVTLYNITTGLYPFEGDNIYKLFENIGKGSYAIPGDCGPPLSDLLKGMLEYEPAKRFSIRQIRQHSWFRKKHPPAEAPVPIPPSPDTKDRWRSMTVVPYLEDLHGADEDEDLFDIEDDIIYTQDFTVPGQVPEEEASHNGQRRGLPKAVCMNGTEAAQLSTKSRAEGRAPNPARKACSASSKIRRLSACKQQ

[3] = biological target: DNA (cytosine-5)-methyltransferase 1 (Homo sapiens) (UniProt P26358); settings: at 1 µM
Sequence of DNA (cytosine-5)-methyltransferase 1 (Homo sapiens) (P26358 whole entry): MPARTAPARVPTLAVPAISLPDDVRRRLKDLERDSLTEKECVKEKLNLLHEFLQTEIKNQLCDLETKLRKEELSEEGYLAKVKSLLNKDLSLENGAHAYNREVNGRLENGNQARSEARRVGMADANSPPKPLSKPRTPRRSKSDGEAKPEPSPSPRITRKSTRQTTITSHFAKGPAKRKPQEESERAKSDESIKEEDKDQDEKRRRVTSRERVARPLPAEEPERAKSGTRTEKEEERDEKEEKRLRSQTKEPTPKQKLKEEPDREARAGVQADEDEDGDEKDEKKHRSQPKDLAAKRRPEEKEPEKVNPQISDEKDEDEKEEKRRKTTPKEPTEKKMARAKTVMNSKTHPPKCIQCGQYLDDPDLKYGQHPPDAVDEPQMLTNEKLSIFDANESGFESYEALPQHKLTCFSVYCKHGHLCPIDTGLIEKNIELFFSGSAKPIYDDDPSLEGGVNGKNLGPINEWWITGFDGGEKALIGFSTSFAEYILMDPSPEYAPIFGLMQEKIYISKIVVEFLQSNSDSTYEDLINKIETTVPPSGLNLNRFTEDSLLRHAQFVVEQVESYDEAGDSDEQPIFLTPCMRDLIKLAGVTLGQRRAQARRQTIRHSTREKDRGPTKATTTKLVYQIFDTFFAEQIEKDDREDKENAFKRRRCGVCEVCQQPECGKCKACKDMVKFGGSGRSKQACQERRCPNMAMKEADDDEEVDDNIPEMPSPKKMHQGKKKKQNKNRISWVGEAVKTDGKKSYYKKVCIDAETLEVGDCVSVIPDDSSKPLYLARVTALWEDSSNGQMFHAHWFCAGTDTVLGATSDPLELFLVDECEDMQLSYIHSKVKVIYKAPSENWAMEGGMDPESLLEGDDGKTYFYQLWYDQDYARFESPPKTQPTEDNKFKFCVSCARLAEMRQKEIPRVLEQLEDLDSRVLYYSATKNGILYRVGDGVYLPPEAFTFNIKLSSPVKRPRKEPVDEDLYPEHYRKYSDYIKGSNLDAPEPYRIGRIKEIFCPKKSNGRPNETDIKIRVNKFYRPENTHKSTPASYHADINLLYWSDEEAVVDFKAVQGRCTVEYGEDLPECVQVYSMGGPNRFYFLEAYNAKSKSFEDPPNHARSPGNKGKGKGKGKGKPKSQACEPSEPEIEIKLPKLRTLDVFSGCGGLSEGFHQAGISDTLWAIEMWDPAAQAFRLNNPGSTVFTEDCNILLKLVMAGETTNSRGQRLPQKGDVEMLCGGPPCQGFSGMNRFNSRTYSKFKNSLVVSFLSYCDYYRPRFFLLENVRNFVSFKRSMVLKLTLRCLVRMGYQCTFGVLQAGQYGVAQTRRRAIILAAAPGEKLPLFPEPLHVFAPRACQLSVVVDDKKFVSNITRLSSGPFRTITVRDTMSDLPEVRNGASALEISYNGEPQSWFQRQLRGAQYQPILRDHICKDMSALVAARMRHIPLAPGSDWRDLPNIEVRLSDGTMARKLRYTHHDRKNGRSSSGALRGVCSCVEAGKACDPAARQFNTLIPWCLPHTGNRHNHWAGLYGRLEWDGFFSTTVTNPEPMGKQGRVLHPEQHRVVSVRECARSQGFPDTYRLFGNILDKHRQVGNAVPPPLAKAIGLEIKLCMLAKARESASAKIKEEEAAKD

Insulin receptor = Insulin receptor (Homo sapiens, UniProt P06213)
Sequence of Insulin receptor (P06213 28-758 limits assumed): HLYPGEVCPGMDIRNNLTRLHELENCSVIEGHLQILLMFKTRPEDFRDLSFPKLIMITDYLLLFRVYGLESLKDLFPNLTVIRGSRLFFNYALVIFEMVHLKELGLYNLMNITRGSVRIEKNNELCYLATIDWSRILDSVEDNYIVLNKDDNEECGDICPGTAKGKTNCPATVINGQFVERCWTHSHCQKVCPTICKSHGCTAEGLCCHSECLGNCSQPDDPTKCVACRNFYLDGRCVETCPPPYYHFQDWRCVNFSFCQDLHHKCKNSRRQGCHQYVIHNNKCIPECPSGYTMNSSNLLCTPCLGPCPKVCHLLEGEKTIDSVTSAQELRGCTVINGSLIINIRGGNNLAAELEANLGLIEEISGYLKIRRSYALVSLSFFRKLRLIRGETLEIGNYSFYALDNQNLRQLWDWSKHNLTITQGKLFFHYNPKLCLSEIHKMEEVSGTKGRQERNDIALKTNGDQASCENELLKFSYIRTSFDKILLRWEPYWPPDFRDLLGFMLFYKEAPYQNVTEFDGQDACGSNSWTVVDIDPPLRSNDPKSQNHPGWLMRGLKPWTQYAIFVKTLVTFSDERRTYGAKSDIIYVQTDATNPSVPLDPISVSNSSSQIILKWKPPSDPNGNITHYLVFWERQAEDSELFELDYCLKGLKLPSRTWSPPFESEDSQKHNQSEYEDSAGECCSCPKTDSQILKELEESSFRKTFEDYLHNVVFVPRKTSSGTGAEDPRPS
Sequence of Insulin receptor (P06213 763-1382 limits assumed): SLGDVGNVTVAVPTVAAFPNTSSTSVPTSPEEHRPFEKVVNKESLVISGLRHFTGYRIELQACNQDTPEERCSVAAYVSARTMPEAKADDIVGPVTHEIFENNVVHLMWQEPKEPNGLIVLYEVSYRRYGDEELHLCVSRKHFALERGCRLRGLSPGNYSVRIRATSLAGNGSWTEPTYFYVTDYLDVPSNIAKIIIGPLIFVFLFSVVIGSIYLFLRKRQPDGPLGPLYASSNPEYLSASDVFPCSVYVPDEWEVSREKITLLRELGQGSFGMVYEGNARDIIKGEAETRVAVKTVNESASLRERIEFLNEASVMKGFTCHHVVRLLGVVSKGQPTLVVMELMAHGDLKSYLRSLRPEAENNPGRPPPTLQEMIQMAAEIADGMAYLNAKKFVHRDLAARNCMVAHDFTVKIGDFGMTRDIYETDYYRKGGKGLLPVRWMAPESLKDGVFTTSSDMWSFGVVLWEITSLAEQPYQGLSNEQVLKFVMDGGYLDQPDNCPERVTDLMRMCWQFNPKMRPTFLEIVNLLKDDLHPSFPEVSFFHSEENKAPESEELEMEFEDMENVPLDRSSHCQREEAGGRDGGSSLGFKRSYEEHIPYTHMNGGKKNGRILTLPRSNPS

[4] = biological target: T2, 5'-AMP-activated protein kinase catalytic subunit alpha-1 (Homo sapiens, UniProt Q13131); assay: Selectivity interaction (Kinase panel (literature)) EUB0001199aCl PRKAA1; settings: at 1 µM
T2 sequence (Q13131 whole entry, looked up): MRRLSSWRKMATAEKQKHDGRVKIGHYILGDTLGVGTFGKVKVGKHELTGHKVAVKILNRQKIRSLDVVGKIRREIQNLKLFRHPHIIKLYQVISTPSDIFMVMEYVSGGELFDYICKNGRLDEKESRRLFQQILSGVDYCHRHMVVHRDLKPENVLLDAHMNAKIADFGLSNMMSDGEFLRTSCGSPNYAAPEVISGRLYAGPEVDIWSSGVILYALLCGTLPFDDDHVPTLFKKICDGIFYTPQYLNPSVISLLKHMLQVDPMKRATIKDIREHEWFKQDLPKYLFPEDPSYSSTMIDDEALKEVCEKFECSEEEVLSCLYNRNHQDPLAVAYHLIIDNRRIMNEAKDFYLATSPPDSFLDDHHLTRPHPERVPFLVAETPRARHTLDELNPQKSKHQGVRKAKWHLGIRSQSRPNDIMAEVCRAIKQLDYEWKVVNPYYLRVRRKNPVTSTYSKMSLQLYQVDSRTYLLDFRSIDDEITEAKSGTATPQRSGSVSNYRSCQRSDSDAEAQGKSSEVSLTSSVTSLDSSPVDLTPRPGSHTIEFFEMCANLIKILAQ

[5] = biological target: T3, Serine/threonine-protein kinase RIO3 (Homo sapiens) (UniProt O14730); settings: at 10 µM
T3 sequence (whole entry): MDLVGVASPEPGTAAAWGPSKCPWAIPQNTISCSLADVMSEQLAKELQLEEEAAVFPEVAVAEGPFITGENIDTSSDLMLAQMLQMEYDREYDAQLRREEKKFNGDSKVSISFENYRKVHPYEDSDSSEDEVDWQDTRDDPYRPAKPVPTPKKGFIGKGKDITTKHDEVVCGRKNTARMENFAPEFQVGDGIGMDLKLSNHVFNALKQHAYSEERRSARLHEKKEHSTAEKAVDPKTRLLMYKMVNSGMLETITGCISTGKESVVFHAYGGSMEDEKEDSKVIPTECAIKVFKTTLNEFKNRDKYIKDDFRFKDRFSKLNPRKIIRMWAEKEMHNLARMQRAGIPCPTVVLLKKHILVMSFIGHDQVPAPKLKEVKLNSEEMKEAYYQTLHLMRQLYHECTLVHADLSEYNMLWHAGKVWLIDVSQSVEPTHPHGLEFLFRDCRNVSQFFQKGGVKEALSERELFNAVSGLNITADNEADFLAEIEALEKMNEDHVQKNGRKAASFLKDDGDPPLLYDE

[6] = biological target: Dual specificity testis-specific protein kinase 1 (Homo sapiens) (UniProt Q15569); assay: Selectivity interaction (KinomeScan (DiscoverX)) EUB0000092b TESK1; settings: at 10 µM
[7] = biological target: Serine/threonine-protein kinase 16 (Homo sapiens, UniProt O75716); assay: Selectivity interaction (KinomeScan (DiscoverX)) EUB0000092b STK16; settings: at 10 µM
[8] = biological target: Serine/threonine-protein kinase B-raf (Homo sapiens) (UniProt P15056); assay: Selectivity interaction (KinomeScan (DiscoverX)) EUB0000092b BRAF; settings: at 10 µM
[9] = biological target: T4, cGMP-dependent protein kinase 1 (Homo sapiens) (UniProt Q13976); assay: Selectivity interaction (Upstate Kinase Profiler service (Millipore)) EUB0000056c PRKG1; settings: at 1 µM
T4 sequence (whole entry): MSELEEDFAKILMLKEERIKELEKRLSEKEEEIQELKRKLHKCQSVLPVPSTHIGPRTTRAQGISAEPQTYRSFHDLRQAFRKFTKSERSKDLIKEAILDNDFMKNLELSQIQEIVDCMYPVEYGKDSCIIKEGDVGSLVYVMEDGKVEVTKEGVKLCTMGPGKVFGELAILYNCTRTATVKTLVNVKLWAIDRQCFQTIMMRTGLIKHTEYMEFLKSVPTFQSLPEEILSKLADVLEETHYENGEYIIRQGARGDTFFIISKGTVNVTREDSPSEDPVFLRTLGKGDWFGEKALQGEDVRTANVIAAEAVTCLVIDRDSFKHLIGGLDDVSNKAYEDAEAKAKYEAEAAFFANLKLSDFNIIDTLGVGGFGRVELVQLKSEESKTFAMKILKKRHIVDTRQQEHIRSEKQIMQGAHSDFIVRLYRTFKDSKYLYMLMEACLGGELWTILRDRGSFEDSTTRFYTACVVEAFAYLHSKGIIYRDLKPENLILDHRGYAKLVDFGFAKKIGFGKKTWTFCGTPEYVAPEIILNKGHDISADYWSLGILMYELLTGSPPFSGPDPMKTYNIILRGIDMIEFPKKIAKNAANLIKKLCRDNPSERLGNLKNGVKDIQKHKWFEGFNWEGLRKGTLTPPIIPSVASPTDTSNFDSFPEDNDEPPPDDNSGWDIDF

[10] = biological target: Ephrin type-A receptor 5 (Homo sapiens) (UniProt P54756); assay: Selectivity interaction (KinomeScan (DiscoverX)) EUB0000655a EPHA5; settings: at 10 µM
[11] = biological target: MAP kinase-interacting serine/threonine-protein kinase 2 (Homo sapiens, UniProt Q9HBH9); assay: Selectivity interaction (KinomeScan (DiscoverX)) EUB0000655a MKNK2; settings: at 10 µM
[12] = biological target: T2, 5'-AMP-activated protein kinase catalytic subunit alpha-1; assay: Selectivity interaction (KinomeScan (DiscoverX)) EUB0000618a PRKAA1; settings: at 10 µM
[13] = biological target: 5'-AMP-activated protein kinase catalytic subunit alpha-2 (Homo sapiens) (UniProt P54646); assay: Selectivity interaction (KinomeScan (DiscoverX)) EUB0000618a PRKAA2; settings: at 10 µM
Sequence of 5'-AMP-activated protein kinase catalytic subunit alpha-2 (Homo sapiens) (P54646 whole entry, looked up): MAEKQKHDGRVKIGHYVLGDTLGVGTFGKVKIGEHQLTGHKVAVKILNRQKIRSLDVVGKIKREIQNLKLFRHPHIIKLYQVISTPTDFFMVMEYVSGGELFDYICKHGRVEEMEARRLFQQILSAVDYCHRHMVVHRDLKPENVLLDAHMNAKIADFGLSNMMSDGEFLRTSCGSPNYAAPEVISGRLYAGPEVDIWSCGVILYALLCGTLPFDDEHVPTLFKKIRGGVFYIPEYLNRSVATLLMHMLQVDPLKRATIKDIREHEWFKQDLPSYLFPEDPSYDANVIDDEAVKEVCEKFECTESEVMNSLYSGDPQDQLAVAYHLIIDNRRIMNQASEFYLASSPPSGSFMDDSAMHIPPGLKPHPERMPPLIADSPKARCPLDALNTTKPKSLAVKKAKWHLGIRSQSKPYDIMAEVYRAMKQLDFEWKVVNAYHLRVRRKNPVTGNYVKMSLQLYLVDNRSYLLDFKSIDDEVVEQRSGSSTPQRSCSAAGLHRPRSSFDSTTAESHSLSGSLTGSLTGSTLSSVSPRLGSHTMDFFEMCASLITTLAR

[14] = biological target: Dual specificity mitogen-activated protein kinase kinase 2 (Homo sapiens) (UniProt P36507); assay: Selectivity interaction (SelectScreen profiling (Invitrogen)) EUB0000607a MAP2K2; settings: at 2 µM
[15] = biological target: Phosphatidylinositol 3-kinase catalytic subunit type 3 (Homo sapiens, UniProt Q8NEB9); assay: Selectivity interaction (Kinase panel (KiNativ target engagement assay in Jurkat cells)) EUB0001635a PIK3C3; assay type: cell-based; settings: Selectivity number of off-targets 0.0, Selectivity number of targets 233.0, Source Knowledge https://www.sciencedirect.com/science/article/pii/S2451945619300674?via%3Dihub, at 1 µM
[16] = biological target: Mitogen-activated protein kinase 9 (Homo sapiens, UniProt P45984); assay: Selectivity interaction (KinomeScan (DiscoverX)) EUB0000666a MAPK9; settings: at 10 µM
Sequence of Mitogen-activated protein kinase 9 (P45984 whole entry, looked up): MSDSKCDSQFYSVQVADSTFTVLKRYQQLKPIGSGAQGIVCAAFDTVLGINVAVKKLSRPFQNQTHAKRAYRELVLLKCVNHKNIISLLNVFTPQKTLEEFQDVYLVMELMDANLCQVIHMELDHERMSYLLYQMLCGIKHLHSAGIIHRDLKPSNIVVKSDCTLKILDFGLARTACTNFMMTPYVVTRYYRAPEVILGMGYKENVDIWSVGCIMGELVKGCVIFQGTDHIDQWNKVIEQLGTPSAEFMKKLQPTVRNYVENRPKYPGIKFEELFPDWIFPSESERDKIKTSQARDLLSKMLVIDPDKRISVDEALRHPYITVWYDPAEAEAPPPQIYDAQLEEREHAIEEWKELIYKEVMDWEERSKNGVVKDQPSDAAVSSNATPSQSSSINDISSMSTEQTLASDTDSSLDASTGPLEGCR

Sequence of Casein kinase I isoform delta (P48730 whole entry, looked up, canonical isoform): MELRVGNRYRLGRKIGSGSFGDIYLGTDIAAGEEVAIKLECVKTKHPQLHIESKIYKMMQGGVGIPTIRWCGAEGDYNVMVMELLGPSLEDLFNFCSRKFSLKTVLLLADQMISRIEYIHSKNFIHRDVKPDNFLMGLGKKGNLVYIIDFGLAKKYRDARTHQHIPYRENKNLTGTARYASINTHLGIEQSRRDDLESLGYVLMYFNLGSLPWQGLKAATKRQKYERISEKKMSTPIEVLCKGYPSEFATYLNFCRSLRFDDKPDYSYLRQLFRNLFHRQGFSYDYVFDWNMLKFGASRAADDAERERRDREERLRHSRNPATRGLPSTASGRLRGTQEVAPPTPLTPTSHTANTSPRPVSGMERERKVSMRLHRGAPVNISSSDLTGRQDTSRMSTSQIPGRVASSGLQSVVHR

% activity [3]: > 85%
SMILES: CNCCN1CCC(c2cc(CN(C)C(=O)c3cccc(Oc4ccccc4)c3)ccn2)CC1

IC50 (Insulin receptor): > 10 µM
SMILES: CCc1cccc(CC)c1NC(=O)c1nn(C)c2c1CCc1cnc(Nc3ccc(C(=O)NC4CCN(C)CC4)cc3OC(F)(F)F)nc1-2

% of inhibition [4]: 3%
SMILES: CN1Cc2nccc(-c3cn(C)nc3-c3ccc(F)cc3)c2C1=O

% of inhibition [9]: 3%
SMILES: Cc1ccc(-c2ccc3c(ccc4sc5c(c43)NC[C@@H](C)NC5=O)n2)cn1

Continued, molecule first:

SMILES: CC[C@@H]1[C@H](F)C(=O)N[C@@H]1COc1nccc2cc(C(N)=O)c(OC)cc12 [ZIMLOVISERTIB]
% of inhibition ([1]; at 0.01 µM): -6.6% | % of inhibition ([1]; at 0.04 µM): 20.3% | % of inhibition ([1]; at 0.2 µM): 53% | % of inhibition ([1]; at 1 µM): 77.8% | % of inhibition ([1]; at 5 µM): 94.8% | % of inhibition ([2]; at 0.01 µM): -0.5% | % of inhibition ([2]; at 0.04 µM): 12.2% | % of inhibition ([2]; at 0.2 µM): 34.8% | % of inhibition ([2]; at 1 µM): 58.5% | % of inhibition ([2]; at 5 µM): 85.1%

SMILES: CCN(CC)CCCCNc1ncc2cc(-c3cc(OC)cc(OC)c3)c(NC(=O)NC(C)(C)C)nc2n1
% of control [5]: 100%

SMILES: CCC(=O)N1CCN(c2ccc(-n3c(=O)ccc4cnc5ccc(-c6cnc7ccccc7c6)cc5c43)cc2C(F)(F)F)CC1
% of control [6]: 58% | % of control [7]: 18% | % of control [8]: 59%

SMILES: CN(C)CCOc1ccc(-c2nc(-c3ccncc3)c(-c3ccc4c(c3)CC/C4=N\O)[nH]2)cc1
% of control [10]: 99% | % of control [11]: 95%

SMILES: O[C@H]1CC[C@H](Nc2ncc3nc(Nc4c(F)cc(F)cc4F)n([C@H]4CCOC4)c3n2)CC1
% of control [12]: 99% | % of control [13]: 100%

SMILES: CNC(=O)Nc1ccc(-c2nc(N3CC4CCC(C3)O4)c3cnn(C4CCC5(CC4)OCCO5)c3n2)cc1
% of inhibition [14]: 2%

SMILES: C=CC(=O)Nc1ccc(C(=O)Nc2[nH]nc3c2CN(C(=O)N[C@H](CN(C)C)c2ccccc2)C3(C)C)cc1
% of engagement [15]: -19.8%

SMILES: O=C(NOC[C@H](O)CO)c1ccc(F)c(F)c1Nc1ccc(I)cc1F
% of control [16]: 88%
